Reference: patent publication US20060251751A1, “Sophoridine and its use as an analgesic” (SHANGHAI FANGDA PHARMACEUTICALS, LTD., priority 2001, published 2006)
Marks after values point to notes of the source that are not given here.

What was measured:
[1] = system: patients suffering from advanced cancers; assay: Clinical trials in more than 200 patients with advanced cancers; assay type: in vivo, human
Male Kunming mice = assay: Analgesic effect of sophoridine on mice model (hot plate method); assay type: in vivo; conditions: for Pain thresholds (seconds) After administration: 10 minutes after administration; for Pain thresholds (seconds) Before administration: before administration (baseline)
Method: The analgesic activity of sophoridine was tested in vivo in mice experimental models, using Hot Plate Method, which are known to evaluate the pain in animals.
The method that was used is described by Eddy N. B. and Leimbach D. (J. Pharm. Exp. Ther. 107: 385-393, 1953) and somewhat modification is made in the present invention.
Male Kunming mice weighing 18-22 g were used as experimental model. The analgesic effect of the sophoridine was evaluated by analysing the behavioral response of the animals on a hot surface at 55° C.±0.5° C. The alkaloid compounds being tested were administered intravenously through the tail vein 10 minutes before starting the test.
Briefly, the process consisted of placing the animals on the plate and keeping them in a plastic cylinder 22 cm diameter and 11 cm high. The time the animals took to lick a paw or jump off the hot surface was determined. The animals were selected before starting the test that those with response latency (the pain threshold values before administrations) longer than 30 seconds were excluded from the experiment. The certificated animals divided into six groups (10 animals/group). Five experimental groups received 25, 20, 15, 10 and 5 mg/kg of the sophoridine suspended in a normal saline solution, respectively. The control group received treatment only with the solvent (normal saline).
10 minutes after administering the alkaloids being tested, the test was repeated and the maximum response latency time (seconds) took the animals to lick the hindlimb or jump off and run away was again recorded.

Kunming mice = assay: Analgesic effect of sophoridine on mice models (acetic acid induced writhing method); assay type: in vivo; conditions: for Number of writhe (X ± SD): 0.6% acetic acid i.p.
Method: The analgesic activity of sophoridine was also tested in vivo in mice experimental models, using acetic acid induced writhing Method which are known to evaluate the pain in animals. Writhing test is a standard procedure for detecting and comparing analgesic activity in laboratory animals, and generally correlates well with human efficacy.
30 Male and 30 female Kunming mice weighing 18-22 g were used as experimental models. […] Then, the animals randomly divided into six groups, each group includes 10 animals. Five experimental groups intravenously received 25, 20, 15, 10 and 5 mg/Kg of the sophoridine suspended in a normal saline solution via the tail vein, respectively.
The frequency of writhing syndrome was counted for 5 minutes from 15 minutes after the injection of spophoridine or placebo. The control group received treatment only with the solvent (normal saline).

mice [2] = assay: Comparison of analgesic effects and synergistic activity between sophoridine and morphine (hot plate method); assay type: in vivo; conditions: for Pain thresholds before admin.: before admin. (baseline)
Method: In five experimental groups, animals of each group received 25, 20, 15, 10 and 5 mg/kg of the sophoridine suspended in a normal saline solution, respectively.

mice [3] = assay: Effect of the opioid receptor antagonist naloxone on morphine- and sophoridine-induced analgesia; assay type: in vivo
Method: Following procedures of the previous Examples, screening and grouping of experimental animals was carried out. […] The animals of negative control were injected with normal saline. The pain thresholds (response latency time, seconds, of each animal was recorded at 15, 30, 60, and 90 minutes after administrations, respectively. The results are summarized in Table 4 below.

[4] = system: acetylcholine level in central nervous system; assay: Preliminary study on mechanism of analgesic effect (acetylcholine level in CNS)
Excerpt: Therefore, sophoridine and derivatives thereof are also useful for treating patients suffering from neurodegenerative diseases, senile dementia of the Alzheimer's type (SDAT) and Pakinson's disease (PD).

tumor cells = conditions: cited from earlier work
[5] = sophoridine 25 mg/kg i.v., hot plate 55°C

## O=C1C=CC[C@@H]2[C@H]3CCCN4CCC[C@@H](CN12)[C@@H]34 [sophocarpine]
[1]
  effect on pain caused by malignant growth of cancer tissues (in words): significantly inhibit or alleviate mild to severe pain
  effect on proliferation of tumor cells (in words): inhibit proliferation of tumor cells

## O=C1CCC[C@@H]2[C@H]3CCCN4CCC[C@H](CN12)[C@@H]34 [Sophoridine]
Male Kunming mice; hot plate method, 5-25 mg/kg i.v.
  analgesic activity in mice models (in words): good analgesic activity
Male Kunming mice; sophoridine 5 mg/kg i.v.
  Pain thresholds (seconds) After administration: 25.8 ± 20.74 s
  Pain thresholds (seconds) Before administration: 16.3 ± 6.02 s
Male Kunming mice; sophoridine 10 mg/kg i.v.
  Pain thresholds (seconds) After administration: 24.8 ± 15.99 s
  Pain thresholds (seconds) Before administration: 11.7 ± 4.59 s
Male Kunming mice; sophoridine 15 mg/kg i.v.
  Pain thresholds (seconds) After administration: 38.5 ± 17.19 s
  Pain thresholds (seconds) Before administration: 14.7 ± 4.62 s
Male Kunming mice; sophoridine 20 mg/kg i.v.
  Pain thresholds (seconds) After administration: 57.1 ± 6.10 s
  Pain thresholds (seconds) Before administration: 12.4 ± 4.25 s
Male Kunming mice; [5]
  Pain thresholds (seconds) After administration: 48.6 ± 19.14 s
  Pain thresholds (seconds) Before administration: 16.4 ± 6.48 s
Kunming mice; sophoridine 5 mg/kg i.v.
  Number of writhe (X ± SD): 23.2 ± 6.43
Kunming mice; sophoridine 10 mg/kg i.v.
  Number of writhe (X ± SD): 14.1 ± 9.64
Kunming mice; sophoridine 15 mg/kg i.v.
  Number of writhe (X ± SD): 9.9 ± 6.3
Kunming mice; sophoridine 20 mg/kg i.v.
  Number of writhe (X ± SD): 1.5 ± 1.35
Kunming mice; sophoridine 25 mg/kg i.v., counted for 5 minutes from 15 minutes after injection
  Number of writhe (X ± SD): 0***
Kunming mice; writhing method, 5-25 mg/kg i.v.
  analgesic activity in mice models (in words): good analgesic activity
Mice [2]; sophoridine 5 mg/kg
  Pain thresholds after admin. (seconds) 15 min.: 17.5 ± 3.3 s
  Pain thresholds after admin. (seconds) 30 min.: 16.6 ± 6.5 s
  Pain thresholds after admin. (seconds) 60 min.: 16.0 ± 4.5 s
  Pain thresholds after admin. (seconds) 90 min.: 19.3 ± 5.4 s
  Pain thresholds before admin.: 17.45 ± 2.6 s
Mice [2]; sophoridine 10 mg/kg
  Pain thresholds after admin. (seconds) 15 min.: 20.2 ± 7.2 s
  Pain thresholds after admin. (seconds) 30 min.: 28.0 ± 18.3 s
  Pain thresholds after admin. (seconds) 60 min.: 12.6 ± 5.9 s
  Pain thresholds after admin. (seconds) 90 min.: 20.5 ± 15.0 s
  Pain thresholds before admin.: 18.6 ± 4.9 s
Mice [2]; sophoridine 15 mg/kg
  Pain thresholds after admin. (seconds) 15 min.: 32.9 ± 19.2 s
  Pain thresholds after admin. (seconds) 30 min.: 31.3 ± 17.5 s
  Pain thresholds after admin. (seconds) 60 min.: 15.2 ± 10.2 s
  Pain thresholds after admin. (seconds) 90 min.: 15.8 ± 5.7 s
  Pain thresholds before admin.: 16.45 ± 3.9 s
Mice [2]; sophoridine 20 mg/kg
  Pain thresholds after admin. (seconds) 15 min.: 36.8 ± 18.2 s
  Pain thresholds after admin. (seconds) 30 min.: 24.6 ± 7.7 s
  Pain thresholds after admin. (seconds) 60 min.: 23.0 ± 9.9 s
  Pain thresholds after admin. (seconds) 90 min.: 19.3 ± 6.6 s
  Pain thresholds before admin.: 16.9 ± 2.5 s
Mice [2]; sophoridine 25 mg/kg
  Pain thresholds after admin. (seconds) 15 min.: 44.3 ± 14.9 s
  Pain thresholds after admin. (seconds) 30 min.: 28.3 ± 11.4 s
  Pain thresholds after admin. (seconds) 60 min.: 20.3 ± 4.9 s
  Pain thresholds after admin. (seconds) 90 min.: 18.8 ± 6.3 s
  Pain thresholds before admin.: 15.4 ± 4.0 s
Mice [2]; sophoridine in higher doses, hot plate
  analgesic activity compared to morphine hydrochloride (in words): comparable or better analgesic activity
Mice [3]; naloxone 2.0 mg/kg, morphine 10 mg/kg or sophoridine 20 mg/kg
  naloxone counteracting the analgesic effect (in words): ineffective in counteracting the effect
Mice [3]; sophoridine alone 20 mg/kg i.v., 15 min.
  Pain thresholds after admin. (seconds) 15 min.: 34.5 ± 16.2 s
Mice [3]; sophoridine alone 20 mg/kg i.v., 30 min.
  Pain thresholds after admin. (seconds) 30 min.: 23.8 ± 7.0 s
Mice [3]; sophoridine alone 20 mg/kg i.v., 60 min.
  Pain thresholds after admin. (seconds) 60 min.: 21.8 ± 8.9 s
Mice [3]; sophoridine alone 20 mg/kg i.v., 90 min.
  Pain thresholds after admin. (seconds) 90 min.: 18.3 ± 6.6 s
Mice [3]; sophoridine alone 20 mg/kg i.v., before admin. (baseline)
  Pain thresholds before admin.: 17.9 ± 2.6 s
[1]
  effect on pain caused by malignant growth of cancer tissues (in words): significantly inhibit or alleviate mild to severe pain
  effect on proliferation of tumor cells (in words): inhibit proliferation of tumor cells
[1]; higher doses for a long term
  side effects of tolerance and addiction (in words): did not develop any side effects of tolerance and addiction
[4]
  acetylcholine level in central nervous system (in words): significant increasing acetylcholine level
Tumor cells; Xuemei Li et al. 1987
  anti-tumor activities (in words): tumor cell-killing and tumor cell growth-inhibiting activities
Tumor cells; Xuemei Li et al.
  effect on functions of hematopoietic and immunological systems (in words): does not inhibit the functions of hematopoietic and immunological systems
